From patent publication US12427210B2, “Compounds comprising a fibroblast activation protein ligand and use thereof” (priority 2019, dated 2025)
Numbered stars: 1 amine (or outer) side, 2 acyl side, 3 side chain; on linkers, the order of the positions; unused ones are H or OH. Bridge positions count the residues as written; N and C are the ends. Peptide text beside a SMILES is read from it. * marks the point of attachment. X1 = O=C(O)CN1CCN(CC(=O)O)CCN(CC(=O)N2CCN(Cc3cc(C[*:1])cc(C[*:2])c3)CC2)CCN(CC(=O)O)CC1; Hexanoyl = CCCCCC(=O)*

How the values were obtained:
BZD (central) = conditions: 10 μM
alpha 1A (h) = target: T1, alpha 1A (h) (Homo sapiens, UniProt P35348); experiment: biochemical; conditions: read-out: % Inhibition of Specific Binding
T1 sequence (P35348 1-466): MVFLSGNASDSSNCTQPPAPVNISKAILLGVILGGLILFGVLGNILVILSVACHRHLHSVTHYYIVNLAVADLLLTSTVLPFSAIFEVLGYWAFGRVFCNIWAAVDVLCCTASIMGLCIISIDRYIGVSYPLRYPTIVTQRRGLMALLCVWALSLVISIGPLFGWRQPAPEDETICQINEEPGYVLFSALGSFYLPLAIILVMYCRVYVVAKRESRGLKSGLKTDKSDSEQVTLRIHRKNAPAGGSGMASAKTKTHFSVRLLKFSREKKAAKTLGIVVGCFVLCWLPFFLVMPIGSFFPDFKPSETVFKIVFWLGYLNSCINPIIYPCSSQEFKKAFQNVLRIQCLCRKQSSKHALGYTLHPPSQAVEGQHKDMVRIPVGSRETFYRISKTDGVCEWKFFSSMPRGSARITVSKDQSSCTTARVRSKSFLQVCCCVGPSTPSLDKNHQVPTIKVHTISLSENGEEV

beta 2 (h) = beta 2 (h) (Homo sapiens, UniProt P07550); experiment: biochemical; conditions: read-out: % Inhibition of Specific Binding
D2S (h) = D2S (h) (Homo sapiens, UniProt P14416); experiment: biochemical; conditions: read-out: % Inhibition of Specific Binding
H1 (h) = H1 (h) (Homo sapiens, UniProt P35367); experiment: biochemical; conditions: read-out: % Inhibition of Specific Binding
delta (DOP) (h) = delta (DOP) (h) (Homo sapiens, UniProt P41143); experiment: biochemical; conditions: read-out: % Inhibition of Specific Binding
5-HT1A (h) = 5-HT1A (h) (Homo sapiens, UniProt P08908); experiment: biochemical; conditions: read-out: % Inhibition of Specific Binding
[1] = target: norepinephrine transporter (h) (Homo sapiens, UniProt P23975); experiment: biochemical; conditions: read-out: % Inhibition of Specific Binding
COX2(h) = COX2(h) (Homo sapiens, UniProt P35354); experiment: biochemical; conditions: read-out: % Inhibition of Specific Binding
Activated Protein C = Activated Protein C (Homo sapiens, UniProt P04070); experiment: biochemical; conditions: read-out: Percentage inhibition (%)
Caspase-3 = target: T2, Caspase-3 (Homo sapiens, UniProt P42574); experiment: biochemical; conditions: read-out: Percentage inhibition (%)
T2 sequence (P42574 29-175 limits assumed): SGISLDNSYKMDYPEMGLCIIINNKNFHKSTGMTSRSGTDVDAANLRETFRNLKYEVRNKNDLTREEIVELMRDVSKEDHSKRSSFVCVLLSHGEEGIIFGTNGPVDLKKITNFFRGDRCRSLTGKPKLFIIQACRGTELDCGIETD
T2 sequence (P42574 176-277 limits assumed): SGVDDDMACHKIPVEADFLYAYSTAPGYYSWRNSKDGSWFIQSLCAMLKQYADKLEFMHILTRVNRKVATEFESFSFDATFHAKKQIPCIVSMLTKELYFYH

Cathepsin B = Cathepsin B (Homo sapiens, UniProt P07858); experiment: biochemical; conditions: read-out: Percentage inhibition (%)
Deubiquitinase OTUD6B = target: T3, Deubiquitinase OTUD6B (Homo sapiens, UniProt Q8N6M0); experiment: biochemical; conditions: read-out: Percentage inhibition (%)
T3 sequence (Q8N6M0 1-293): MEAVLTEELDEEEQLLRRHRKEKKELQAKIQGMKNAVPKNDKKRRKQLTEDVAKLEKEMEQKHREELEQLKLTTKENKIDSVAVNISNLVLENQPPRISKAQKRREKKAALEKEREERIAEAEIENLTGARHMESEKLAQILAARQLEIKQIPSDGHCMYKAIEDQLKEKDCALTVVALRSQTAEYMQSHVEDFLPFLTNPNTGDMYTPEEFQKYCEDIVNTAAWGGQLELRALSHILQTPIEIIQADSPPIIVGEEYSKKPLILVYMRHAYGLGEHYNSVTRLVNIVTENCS

[2] = target: T4, Ubiquitin carboxy-terminal hydrolase L3 (Homo sapiens, UniProt P15374); experiment: biochemical; conditions: read-out: Percentage inhibition (%)
T4 sequence (P15374 1-230): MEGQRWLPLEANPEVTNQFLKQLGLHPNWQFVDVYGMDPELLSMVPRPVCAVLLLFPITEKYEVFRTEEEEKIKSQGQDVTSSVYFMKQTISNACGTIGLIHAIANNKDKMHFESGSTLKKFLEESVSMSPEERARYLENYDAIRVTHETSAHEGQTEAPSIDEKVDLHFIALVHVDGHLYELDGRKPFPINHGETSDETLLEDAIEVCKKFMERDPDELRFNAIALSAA

Matrix metalloprotease1 = target: T5, Matrix metalloprotease1 (Homo sapiens, UniProt P03956); experiment: biochemical; conditions: read-out: Percentage inhibition (%)
T5 sequence (P03956 100-469): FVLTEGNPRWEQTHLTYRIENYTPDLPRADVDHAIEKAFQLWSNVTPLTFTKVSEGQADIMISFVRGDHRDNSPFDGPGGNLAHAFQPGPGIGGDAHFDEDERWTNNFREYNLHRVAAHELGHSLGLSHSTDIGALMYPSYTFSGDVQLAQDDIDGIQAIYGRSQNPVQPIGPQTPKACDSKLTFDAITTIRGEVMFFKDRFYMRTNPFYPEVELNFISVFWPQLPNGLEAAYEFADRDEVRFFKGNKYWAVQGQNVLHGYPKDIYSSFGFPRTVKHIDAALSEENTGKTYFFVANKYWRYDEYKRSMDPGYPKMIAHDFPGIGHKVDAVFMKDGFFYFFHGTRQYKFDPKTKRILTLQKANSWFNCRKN

Chain of Activated Protein C (P04070 212-461 limits assumed): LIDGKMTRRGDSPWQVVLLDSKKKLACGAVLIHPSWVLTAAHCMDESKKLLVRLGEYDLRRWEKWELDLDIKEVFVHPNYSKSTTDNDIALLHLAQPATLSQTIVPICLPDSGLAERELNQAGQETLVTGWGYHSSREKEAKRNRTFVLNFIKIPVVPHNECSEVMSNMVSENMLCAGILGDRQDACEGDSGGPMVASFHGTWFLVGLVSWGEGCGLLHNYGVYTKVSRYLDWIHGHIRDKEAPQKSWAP
Chain of Activated Protein C (P04070 43-197 partner limits assumed): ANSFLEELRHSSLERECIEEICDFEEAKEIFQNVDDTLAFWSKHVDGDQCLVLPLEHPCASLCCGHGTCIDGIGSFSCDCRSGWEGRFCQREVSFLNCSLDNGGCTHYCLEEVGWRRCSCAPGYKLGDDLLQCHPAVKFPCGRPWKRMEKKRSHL
Chain of 5-HT1A (h) (P08908 whole entry): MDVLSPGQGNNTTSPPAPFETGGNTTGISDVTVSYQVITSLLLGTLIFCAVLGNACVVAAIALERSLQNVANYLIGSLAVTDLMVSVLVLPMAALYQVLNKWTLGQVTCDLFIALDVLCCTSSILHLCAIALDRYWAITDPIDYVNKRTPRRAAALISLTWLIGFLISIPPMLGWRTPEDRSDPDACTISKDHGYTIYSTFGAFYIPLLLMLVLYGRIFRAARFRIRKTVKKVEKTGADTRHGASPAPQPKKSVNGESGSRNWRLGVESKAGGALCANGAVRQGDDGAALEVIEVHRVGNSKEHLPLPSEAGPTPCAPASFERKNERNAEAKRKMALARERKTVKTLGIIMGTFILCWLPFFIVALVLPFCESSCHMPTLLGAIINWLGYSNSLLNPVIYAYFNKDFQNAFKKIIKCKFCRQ
Chain of beta 2 (h) (P07550 whole entry): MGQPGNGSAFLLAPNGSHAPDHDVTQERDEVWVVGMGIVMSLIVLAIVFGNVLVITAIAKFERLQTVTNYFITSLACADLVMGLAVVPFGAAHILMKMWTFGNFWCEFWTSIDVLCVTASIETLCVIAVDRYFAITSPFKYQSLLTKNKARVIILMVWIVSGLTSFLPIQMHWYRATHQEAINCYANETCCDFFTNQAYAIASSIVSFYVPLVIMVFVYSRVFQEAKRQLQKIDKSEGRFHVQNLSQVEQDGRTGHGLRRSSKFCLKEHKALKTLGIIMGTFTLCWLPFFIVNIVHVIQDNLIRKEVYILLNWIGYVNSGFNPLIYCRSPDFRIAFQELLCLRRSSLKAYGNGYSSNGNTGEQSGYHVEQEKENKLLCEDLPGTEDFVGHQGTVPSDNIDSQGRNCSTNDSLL
Chain of H1 (h) (P35367 whole entry): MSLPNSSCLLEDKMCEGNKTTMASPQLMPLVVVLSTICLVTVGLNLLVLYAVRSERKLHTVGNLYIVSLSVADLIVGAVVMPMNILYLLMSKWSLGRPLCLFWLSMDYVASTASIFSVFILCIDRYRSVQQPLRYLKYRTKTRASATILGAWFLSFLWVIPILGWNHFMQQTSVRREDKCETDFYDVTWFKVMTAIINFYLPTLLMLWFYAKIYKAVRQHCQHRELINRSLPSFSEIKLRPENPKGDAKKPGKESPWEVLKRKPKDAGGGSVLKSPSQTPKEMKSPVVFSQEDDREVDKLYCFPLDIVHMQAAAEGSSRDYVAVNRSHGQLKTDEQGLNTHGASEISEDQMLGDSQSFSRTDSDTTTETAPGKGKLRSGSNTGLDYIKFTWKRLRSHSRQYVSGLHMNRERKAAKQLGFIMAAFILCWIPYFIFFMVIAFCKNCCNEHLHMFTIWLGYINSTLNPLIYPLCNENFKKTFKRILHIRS
Chain of COX2(h) (P35354 18-604): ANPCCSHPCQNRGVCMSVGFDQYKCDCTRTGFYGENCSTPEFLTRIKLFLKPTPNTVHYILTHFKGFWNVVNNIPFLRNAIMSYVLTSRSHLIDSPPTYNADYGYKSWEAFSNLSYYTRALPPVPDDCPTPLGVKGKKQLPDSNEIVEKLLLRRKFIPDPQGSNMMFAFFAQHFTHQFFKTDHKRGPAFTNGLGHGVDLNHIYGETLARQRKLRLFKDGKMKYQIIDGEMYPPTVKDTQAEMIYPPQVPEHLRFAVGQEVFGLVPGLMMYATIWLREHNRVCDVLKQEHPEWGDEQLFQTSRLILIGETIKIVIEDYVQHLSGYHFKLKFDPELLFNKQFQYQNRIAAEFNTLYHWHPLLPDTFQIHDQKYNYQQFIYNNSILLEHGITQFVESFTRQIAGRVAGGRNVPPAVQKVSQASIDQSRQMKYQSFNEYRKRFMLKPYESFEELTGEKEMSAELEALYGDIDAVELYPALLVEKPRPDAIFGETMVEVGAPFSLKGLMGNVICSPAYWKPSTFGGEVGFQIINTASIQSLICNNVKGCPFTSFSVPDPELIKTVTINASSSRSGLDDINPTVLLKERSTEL
Chain of D2S (h) (P14416 1-414 isoform P14416-2): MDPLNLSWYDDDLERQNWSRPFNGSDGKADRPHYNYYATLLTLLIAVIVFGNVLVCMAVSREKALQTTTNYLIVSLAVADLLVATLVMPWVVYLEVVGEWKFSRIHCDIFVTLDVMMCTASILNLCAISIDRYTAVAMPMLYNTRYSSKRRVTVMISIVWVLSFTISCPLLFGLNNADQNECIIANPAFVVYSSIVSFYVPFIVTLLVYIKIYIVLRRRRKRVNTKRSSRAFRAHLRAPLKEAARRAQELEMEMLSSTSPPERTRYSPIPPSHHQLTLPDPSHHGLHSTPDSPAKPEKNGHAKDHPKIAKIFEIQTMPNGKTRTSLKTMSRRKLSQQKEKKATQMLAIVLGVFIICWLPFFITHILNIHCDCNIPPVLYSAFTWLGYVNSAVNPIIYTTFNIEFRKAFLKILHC
Chain of delta (DOP) (h) (P41143 whole entry): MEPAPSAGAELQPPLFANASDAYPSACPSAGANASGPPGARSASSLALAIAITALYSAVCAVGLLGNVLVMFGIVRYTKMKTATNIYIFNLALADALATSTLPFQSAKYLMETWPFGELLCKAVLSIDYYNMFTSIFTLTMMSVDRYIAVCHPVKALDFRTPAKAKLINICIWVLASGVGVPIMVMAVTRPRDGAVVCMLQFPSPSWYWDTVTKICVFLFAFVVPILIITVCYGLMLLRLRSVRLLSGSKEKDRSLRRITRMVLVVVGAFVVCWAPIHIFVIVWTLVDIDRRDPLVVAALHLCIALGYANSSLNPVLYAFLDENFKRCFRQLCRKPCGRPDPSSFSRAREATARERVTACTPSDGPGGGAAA
Chain of norepinephrine transporter (h) (P23975 whole entry): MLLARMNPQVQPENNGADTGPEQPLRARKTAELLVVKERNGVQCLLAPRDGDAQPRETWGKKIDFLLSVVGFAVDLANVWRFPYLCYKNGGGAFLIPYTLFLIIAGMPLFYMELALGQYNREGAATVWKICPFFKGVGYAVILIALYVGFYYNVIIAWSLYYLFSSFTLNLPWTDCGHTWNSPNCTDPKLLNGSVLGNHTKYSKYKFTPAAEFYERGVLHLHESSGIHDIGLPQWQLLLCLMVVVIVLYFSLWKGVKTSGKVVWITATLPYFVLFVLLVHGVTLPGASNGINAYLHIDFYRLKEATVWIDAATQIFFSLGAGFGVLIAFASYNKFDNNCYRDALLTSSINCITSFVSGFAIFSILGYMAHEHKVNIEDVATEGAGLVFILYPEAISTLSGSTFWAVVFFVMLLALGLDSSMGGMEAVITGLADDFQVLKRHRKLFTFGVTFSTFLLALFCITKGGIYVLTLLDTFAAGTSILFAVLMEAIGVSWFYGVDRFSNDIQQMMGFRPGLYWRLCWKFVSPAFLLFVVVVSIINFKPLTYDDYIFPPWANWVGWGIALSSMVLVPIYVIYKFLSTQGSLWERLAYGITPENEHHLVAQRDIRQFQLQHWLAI

Row | Compound | % Inhibition of Specific Binding (BZD (central)) [%] | inhibition at 10 µM (alpha 1A (h)) [%] | inhibition at 10 µM (beta 2 (h)) [%] | inhibition at 10 µM (D2S (h)) [%] | inhibition at 10 µM (H1 (h)) [%] | inhibition at 10 µM (delta (DOP) (h)) [%] | inhibition at 10 µM (5-HT1A (h)) [%] | inhibition at 10 µM [1] [%] | inhibition at 10 µM (COX2(h)) [%] | inhibition at 1 µM (Activated Protein C) [%] | inhibition at 10 µM (Activated Protein C) [%] | inhibition at 1 µM (Caspase-3) [%] | inhibition at 10 µM (Caspase-3) [%] | inhibition at 1 µM (Cathepsin B) [%] | inhibition at 10 µM (Cathepsin B) [%] | inhibition at 1 µM (Deubiquitinase OTUD6B) [%] | inhibition at 10 µM (Deubiquitinase OTUD6B) [%] | inhibition at 1 µM [2] [%] | inhibition at 10 µM [2] [%] | inhibition at 1 µM (Matrix metalloprotease1) [%] | further results
1 | CCCCCC(=O)N[C@H]1CSCc2cc(CSCCNC(=O)CN3CCN(CC(=O)O)CCN(CC(=O)O)CCN(CC(=O)O)CC3)cc(c2)CSC[C@@H](C(=O)O)NC(=O)[C@H](Cc2ccccc2)NC(=O)[C@H](CCC(N)=O)NC(=O)[C@H]([C@@H](C)O)NC(=O)[C@@H]2CCCN2C(=O)[C@@H]2CCCN2C1=O [Compound 3BP-3554, Hex-[Cys(tMeBn(DOTA-AET))-Pro-Pro-Thr-Gln-Phe-Cys]-OH] | 5 | -12 | 8 | -7 | 4 | 1 | -5 | -5 | -22 | -11 | 1 | -2 | -1 | 1 | 2 | 0 | 0 | 0 | 0 | 1 | inhibition at 10 µM (Matrix metalloprotease1): -7%
2 | CCCCCC(=O)N[C@H]1CSCc2cc(cc(CN3CCN(C(=O)CN4CCN(CC(=O)O)CCN(CC(=O)O)CCN(CC(=O)O)CC4)CC3)c2)CSC[C@@H](C(=O)N[C@@H](CC(=O)O)C(N)=O)NC(=O)[C@H](Cc2ccccc2)NC(=O)[C@H](CCC(N)=O)NC(=O)[C@H]([C@@H](C)O)NC(=O)[C@@H]2CCCN2C(=O)[C@@H]2CCCN2C1=O [Compound 3BP-3407, Hex-[Cys(tMeBn(DOTA-PP))-Pro-Pro-Thr-Gln-Phe-Cys]-Asp-NH2] (Hexanoyl-CPPTQFCD-NH2; linker 1-7 via X1) | −9 | 2 | 4 | 15 | 11 | 0 | -3 | -8 | -14 | 5 | 8 | 1 | -2 | 26 | 36 | 2 | 15 | -1 | 14 | -1 | inhibition at 10 µM (Matrix metalloprotease1): 2%
